From EPA's ToxValDB 9.5 come the findings set out here.

Molecules are shown by their SMILES. “And” between values parts separate entries of the source, which are not always exact repeats. Identical values can stand only once.

One data set has as its system Oryctolagus sp. To be noted: for LD50: acute.
For data set [1], the system named is Rattus norvegicus. To be noted: for LD50 / LC50: acute.
For a further data set, the system named is Mus musculus. To be noted: for LD50: acute.
Data set [2] has as its system Rattus norvegicus. To be noted: short-term; duration: 28 days; oral; gavage; M/F; Fischer 344; Deaths + Clinical Observation: Salivation + Body Weight Changes: Weight gain decrease + Food Consumption: decrease + Blood Chemistry: GPT ….
Where [3] appears, read: subchronic, duration: 13 weeks, oral, gavage, Sprague-Dawley.

The NOAEL is the highest tested level that showed no adverse finding. For the molecule `C=CCOC(=O)OCCOCCOC(=O)OCC=C` [Diallyl diglycol carbonate], the no observed adverse effect level (NOAEL) in the data set on Oryctolagus sp. (reproduction developmental, duration: 6 days, dermal, New Zealand) came out at 0.1 mg/kg-day. For the same molecule, the LD50 in the data set with Rattus norvegicus [1] (oral, gavage, Crl) was 349 mg/kg; in the data set with Rattus norvegicus [1] (oral, gavage, Fischer 344) it was 515 mg/kg; in the data set with Mus musculus (injection, Intraperitoneal, albino) it was 269 mg/kg.
Consider `C1=CC2C3C=CC(C3)C2C1` (configuration not stated) [Dicyclopentadiene], for which the NOAEL stood at 25 mg/kg-day in the data set on Oryctolagus sp. (reproduction developmental, duration: 14 days, oral, gavage, F, New Zealand); 750 ppm in the data set with Rattus norvegicus [1] (developmental, duration: 10 days, oral, diet, Sprague-Dawley); 50 mg/kg-day in the data set on Rattus norvegicus [1] (developmental, duration: 10 days, oral, gavage, Sprague-Dawley); 750 ppm in the data set on Rattus norvegicus [1] (reproduction developmental, duration: 10 days, oral, diet, F, Sprague-Dawley); 750 ppm with Rattus norvegicus [1] (reproduction developmental, oral, diet, Sprague-Dawley, generation: F0); 750 ppm in the data set with Rattus norvegicus [1] (reproduction developmental, oral, diet, Sprague-Dawley, generation: F1). For the same molecule, the NOAEL was found to be 750 ppm in the data set on Rattus norvegicus [1] (reproduction developmental, oral, diet, Sprague-Dawley, generation: F2); 20 mg/kg-day in the data set with Rattus norvegicus [1] (reproduction developmental, oral, gavage, F, Sprague-Dawley); 100 mg/kg-day with Rattus norvegicus [1] (reproduction developmental, oral, gavage, M, Sprague-Dawley); 20 mg/kg-day with Rattus norvegicus [1] (reproduction developmental, oral, gavage, Sprague-Dawley, generation: F1). In addition, the NOEL in the data set with Rattus norvegicus [2] came out at 8 mg/kg-day.
In the case of `CCOC(=O)CCl` [Ethyl chloroacetate], the LD50 in the data set with Oryctolagus sp. (dermal) is 335 mg/kg and 230 mg/kg; with Oryctolagus sp. (dermal, occlusive, New Zealand) it was 255 mg/kg; in the data set on Rattus norvegicus [1] (dermal), 161 mg/kg; with Mus musculus (injection, subcutaneous) it was 250 mg/kg; with Mus musculus (oral) it was 350 mg/kg.
As for `CC(C)CCCCCCCOP(OCCCCCCCC(C)C)OCCCCCCCC(C)C` [Isodecyl phosphite], the LD50 in the data set with Oryctolagus sp. (dermal, New Zealand) is over 5000 mg/kg; in the data set with Rattus norvegicus [1] (oral, gavage, Sherman Wistar), over 5000 mg/kg. The molecule also came in with an LC50 in the data set with Rattus norvegicus [1] (Inhalation, Sherman Wistar) of over 12.6 µg/mL. In addition, the no observed adverse effect level (NOAEL) with Rattus norvegicus [1] (reproduction developmental, duration: 8 weeks, oral, gavage, Sprague-Dawley, generation: F0) was at least 1000 mg/kg-day; in the data set with Rattus norvegicus [1] (reproduction developmental, duration: 8 weeks, oral, gavage, Sprague-Dawley, generation: F1), at least 1000 mg/kg-day.
As a reminder, the LOAEL is the lowest tested level that showed an adverse finding. For `CC(C)CCC(C)Nc1ccc(NC(C)CCC(C)C)cc1` (configuration not stated) [N,N'-Bis(1,4-dimethylpentyl)-4-phenylenediamine], the LD50 in the data set with Oryctolagus sp. (dermal, occlusive, New Zealand) was over 3160 mg/kg; with Rattus norvegicus [1] (oral, gavage, Sprague-Dawley), 730 mg/kg. The LC50 in the data set on Rattus norvegicus [1] (inhalation) is over 400 mg/m3. This molecule came in with an LOAEL in the data set with Rattus norvegicus [1] (chronic, duration: 22 weeks, inhalation) of 100 mg/m3. In addition, the NOAEL came out at 150 mg/kg-day with Rattus norvegicus [1] (developmental, duration: 10 days, oral, gavage, Charles River CD Albino); 30 ppm in the data set with Rattus norvegicus [1] (reproduction developmental, duration: 23 weeks, oral, diet, generation: F0); 30 ppm with Rattus norvegicus [1] (reproduction developmental, duration: 23 weeks, oral, diet, generation: F1); 30 ppm in the data set with Rattus norvegicus [1] (reproduction developmental, duration: 23 weeks, oral, diet, generation: F2); 25 mg/kg-day in the data set with Rattus norvegicus [1] (reproduction developmental, duration: 10 days, oral, gavage, F, Charles River CD Albino); 28.8 mg/kg-day in the data set on Rattus norvegicus [1] (subchronic, duration: 30 days, oral, diet, F, Sprague-Dawley). Moreover, the NOAEL with Rattus norvegicus [1] (subchronic, duration: 30 days, oral, diet, M, Sprague-Dawley) is 9.6 mg/kg-day; in the data set with Rattus norvegicus [1] (subchronic, duration: 90 days, oral, diet, M, Sprague-Dawley) it was 9.6 mg/kg-day.
For `CN1C(=O)c2ccc([N+](=O)[O-])cc2C1=O` [N-Methyl-4-nitrophthalimide], the LD50 in the data set on Oryctolagus sp. (dermal, New Zealand) was over 2000 mg/kg; in the data set on Rattus norvegicus [1] (inhalation, whole body, Sprague-Dawley), over 36 mg/L; with Rattus norvegicus [1] (oral, gavage, Sprague-Dawley), 2800 mg/kg. Moreover, the NOAEL is 50 mg/kg-day in the data set on Oryctolagus sp. (developmental, duration: 13 days, oral, gavage, New Zealand); 50 mg/kg-day in the data set on Oryctolagus sp. (reproduction developmental, duration: 13 days, oral, gavage, F, New Zealand); 50 mg/kg-day in the data set with Rattus norvegicus [1] (developmental, duration: 9 days, oral, gavage, Sprague-Dawley); over 25 mg/kg-day with Rattus norvegicus [1] (reproduction developmental, duration: 4 weeks, oral, gavage, Sprague-Dawley); 2.5 mg/kg-day with Rattus norvegicus [1] (reproduction developmental, duration: 4 weeks, oral, gavage, Sprague-Dawley, generation: F0); over 25 mg/kg-day in the data set with Rattus norvegicus [1] (reproduction developmental, duration: 4 weeks, oral, gavage, Sprague-Dawley, generation: F1). In addition, the NOAEL in the data set on Rattus norvegicus [1] (reproduction developmental, duration: 9 days, oral, gavage, F, Sprague-Dawley) was 10 mg/kg-day; in the data set on Rattus norvegicus [1] (setting [3]), 1 mg/kg-day. Further, the LOAEL in the data set on Rattus norvegicus [1] (setting [3]) is 10 mg/kg-day.
As to `CCCCCCCCC=O` [Nonanal], the LD50 in the data set on Oryctolagus sp. (dermal, albino) was over 5000 mg/kg; in the data set on Rattus norvegicus [1] (oral, gavage, Wistar), over 5000 mg/kg.
As for `CCN(CC)C(=S)SSC(=S)N(CC)CC` [Tetraethylthiuram disulfide], the LD50 with Oryctolagus sp. (dermal, occlusive, New Zealand) was over 2000 mg/kg; in the data set on Rattus norvegicus [1] (oral, gavage, Sprague-Dawley), 4570 mg/kg and > 5200 mg/kg and 7070 mg/kg. Further, the NOAEL with Rattus norvegicus [1] (reproduction developmental, duration: 19 days, oral, gavage, F, Sprague-Dawley) was over 250 mg/kg-day; in the data set on Mus musculus (reproduction developmental, duration: 6 days, oral, gavage, CD1, generation: F1) it was over 4900 mg/kg-day.
In the case of `Cc1ccc(OP(=O)(Oc2ccc(C)cc2C)Oc2ccc(C)cc2C)c(C)c1` [Trixylyl phosphate], the LD50 in the data set with Oryctolagus sp. (dermal, New Zealand) was over 2000 mg/kg; in the data set with Rattus norvegicus [1] (oral, gavage, Sprague-Dawley), over 20000 mg/kg.
